# Measured values taken from publication PMC10465125 (eLife, 2023).
# Read-outs that look alike come from different tables or passages of the source.
# Experiments:
# [1] = Cytotoxicity assay (MTT), 293T-ACE2; type: cell-based; details: human, tested concentrations given in μg/ml, read-out: CC50 (median cytotoxic concentration)
# Experimental: (§1) The human embryonic kidney cells 293T stably expressing recombinant human ACE2 (293T-ACE2) were maintained in DMEM containing 10% FBS, 1% P/S, and […] hygromycin. The NCI-H460 cell line (human non-small cell lung cancer cells) was preserved in Modified Eagle’s Medium (MEM, Gibco, USA) supplemented with 10% FBS and 1% P/S. The VeroE6 cell line (African green monkey kidney cells) was grown in Dulbecco’s Modified Eagle’s Medium (DMEM, Gibco) supplemented with 10% fetal bovine serum (FBS, Gibco), 1× GlutaMAX (Gibco), and 1% penicillin/streptomycin (P/S, Hyclone, USA). All these cells were cultured at 37°C and 5% CO2. All cell lines are checked annually for mycoplasma contamination, and human cell lines were authenticated through STR profiling.
# (§2) […]. The medium was removed, and viable cells were detected with MTT assay (Cyrusbioscience, Taiwan), which was read by absorbance at 570 nm by an ELISA reader. All experiments were performed independently in triplicates and repeated three times.
# human TMPRSS2 = target: T1, human TMPRSS2 (Homo sapiens, UniProt O15393); experiment: Cell-based TMPRSS2 enzyme activity assay (293T-TMPRSS2 cells, Boc-QAR-AMC)
# T1 construct: Flag; host or cells: 293T
# T1 sequence (O15393 whole entry): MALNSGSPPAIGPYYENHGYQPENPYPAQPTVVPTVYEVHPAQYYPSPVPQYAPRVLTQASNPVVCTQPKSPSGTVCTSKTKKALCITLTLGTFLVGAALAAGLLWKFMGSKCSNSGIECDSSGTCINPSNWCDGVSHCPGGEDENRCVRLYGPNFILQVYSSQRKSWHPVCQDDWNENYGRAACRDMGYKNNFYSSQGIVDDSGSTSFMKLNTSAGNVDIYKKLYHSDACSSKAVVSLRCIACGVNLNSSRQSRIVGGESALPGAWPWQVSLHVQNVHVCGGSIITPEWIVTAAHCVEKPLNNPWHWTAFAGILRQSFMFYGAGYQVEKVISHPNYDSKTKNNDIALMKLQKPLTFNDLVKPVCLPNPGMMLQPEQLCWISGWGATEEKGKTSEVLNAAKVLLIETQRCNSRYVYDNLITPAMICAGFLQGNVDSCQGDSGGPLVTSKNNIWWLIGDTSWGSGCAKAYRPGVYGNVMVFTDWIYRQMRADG
# [2] = Cytotoxicity assay (MTT), NCI-H460; type: cell-based; details: human, tested concentrations given in μg/ml, read-out: CC50 (median cytotoxic concentration)
# Experimental: as §1, §2
# [3] = tested on: wild-type SARS-CoV-2 Spike Vpps; experiment: microbe, parasite or virus in culture; details: Severe acute respiratory syndrome coronavirus 2, NCI-H460, read-out: EC50 (inhibition of SARS-CoV-2 Vpp infection by 50%)
# [4] = Cytotoxicity assay (MTT), VeroE6; type: cell-based; details: African green monkey, tested concentrations given in μg/ml, read-out: CC50 (median cytotoxic concentration)
# Experimental: as §1, §2
# [5] = tested on: SARS-CoV-2 wild-type Spike Vpps; set-up: EC50 (inhibition of SARS-CoV-2 Vpp infection by 50%): unit not given beside the values
# [6] = target: SARS-CoV-2 Spike RBD / human ACE2 interaction (UniProt P0DTC2+Q9BYF1); experiment: Spike protein–ACE2 interaction ELISA assay; type: binding, SARS-CoV-2; human; details: doses 0, 50, 100 μg/ml (method b11 says μM), Figure 1A
# [7] = tested on: SARS-CoV-2 wild-type Spike Vpps; experiment: microbe, parasite or virus in culture; details: Severe acute respiratory syndrome coronavirus 2, Vero C1008, read-out: EC50 (inhibition of SARS-CoV-2 Vpp infection by 50%)
# [8] = tested on: SARS-CoV-2 wild-type Spike Vpps; experiment: microbe, parasite or virus in culture; details: Severe acute respiratory syndrome coronavirus 2, VeroE6/TMPRSS2, read-out: EC50 (inhibition of SARS-CoV-2 Vpp infection by 50%)
# SARS-CoV-2 Mpro = target: T2, SARS-CoV-2 Mpro (Severe acute respiratory syndrome coronavirus 2, UniProt P0DTD1); type: biochemical
# T2 construct: the main protease (M^pro/3CL^pro), a chymotrypsin-like protease
# [9] = tested on: wild-type SARS-CoV-2 Spike Vpps; experiment: microbe, parasite or virus in culture; details: Severe acute respiratory syndrome coronavirus 2, 293T/ACE2, read-out: EC50 (inhibition of SARS-CoV-2 Vpp infection by 50%)
# Mpro of SARS-CoV-2 = details: in vitro analysis; ref Zhu and Xie, 2020; cited from earlier work
molecule,measurement,setting,value
"O=C1O[C@H]2[C@@H]3OC(=O)c4cc(O)c(O)c(O)c4-c4c(O)c(O)c5oc(=O)c6c(c(O)c(O)c7oc(=O)c4c5c76)-c4c(cc(O)c(O)c4O)C(=O)OC[C@H]3OC(O)[C@@H]2OC(=O)c2cc(O)c(O)c(O)c2-c2c1cc(O)c(O)c2O (mixture of isomers) [Punicalagin, punicalagin]",CC50 at 24 h,[1],606 ± 61.1 mg/L
same,IC50,human TMPRSS2,31.9 µM
same,inhibitory activity on TMPRSS2,"human TMPRSS2; Figure 1C, in words",only moderate inhibitory activity
same,CC50 at 24 h,[2],88.4 ± 6.76 mg/L
same,EC50,[3],4.65 ± 0.47 mg/L
same,CC50 at 24 h,[4],84.7 ± 5.55 mg/L
same,SI (ratio of CC50 to EC50),[5],15.49
same,inhibitory activity against the Spike protein–ACE2 interaction,[6],highest inhibitory activity
same,EC50,[7],5.47 ± 1.27 mg/L
same,EC50,[8],5.8 ± 1.74 mg/L
same,inhibition of Mpro enzymatic activity,SARS-CoV-2 Mpro,even stronger inhibitory activity on M^pro than tannic acid and OPCs
same,EC50,[9],3.7 ± 2.24 mg/L
"Oc1cc(O)c2c(c1)O[C@H](c1ccc(O)c(O)c1)[C@H](O)[C@H]2c1c(O)cc(O)c2c1O[C@H](c1ccc(O)c(O)c1)[C@H](O)C2 [PB2, procyanidin B2]",IC50,Mpro of SARS-CoV-2,75.3 ± 1.29 µM
tannic acid [reference compound],EC50 (inhibition of SARS-CoV-2 Vpp infection by 50%),[5],6.91±0.63
